Reference: the NIST ThermoML archive (doi:10.1021/je060271a)
“And” between values parts separate entries of the source, which are not always exact repeats. Equal values may be shown once. ± gives the expanded uncertainty stated by the source.

Conditions: 343.15 K, Liquid, Vibrating tube method

CCCCCCC(=O)OCC(COC(=O)CCCCCC)(COC(=O)CCCCCC)COC(=O)CCCCCC [pentaerythritol tetraheptanoate]
Conditions	mass density
13341 kPa	950.4 ± 1.2 kg/m3
13372 kPa	950.4 ± 1.2 kg/m3
13408 kPa	950.3 ± 1.2 kg/m3
13431 kPa	950.4 ± 1.2 kg/m3
13453 kPa	950.5 ± 1.2 kg/m3
13478 kPa	950.4 ± 1.2 kg/m3
13499 kPa	950.4 ± 1.2 kg/m3
13521 kPa	950.4 ± 1.2 kg/m3
13546 kPa	950.5 ± 1.2 kg/m3
13567 kPa	950.5 ± 1.2 kg/m3
13589 kPa	950.5 ± 1.2 kg/m3
13615 kPa	950.5 ± 1.2 kg/m3
13637 kPa	950.5 ± 1.2 kg/m3
13658 kPa	950.6 ± 1.2 kg/m3
13661 kPa	950.5 ± 1.2 kg/m3
13675 kPa	950.6 ± 1.2 kg/m3
13680 kPa	950.6 ± 1.2 kg/m3
13707 kPa	950.6 ± 1.2 kg/m3
13729 kPa	950.6 ± 1.2 kg/m3
13751 kPa	950.7 ± 1.2 kg/m3
13779 kPa	950.6 ± 1.2 kg/m3
13801 kPa	950.7 ± 1.2 kg/m3
13824 kPa	950.7 ± 1.2 kg/m3
13831 kPa	950.7 ± 1.2 kg/m3
13845 kPa	950.8 ± 1.2 kg/m3
13850 kPa	950.6 ± 1.2 kg/m3
13858 kPa	950.8 ± 1.2 kg/m3
13872 kPa	950.8 ± 1.2 kg/m3
13895 kPa	950.8 ± 1.2 kg/m3
13922 kPa	950.8 ± 1.2 kg/m3
13944 kPa	950.7 ± 1.2 kg/m3
13968 kPa	950.8 ± 1.2 kg/m3
13995 kPa	950.8 ± 1.2 kg/m3
14018 kPa	950.9 ± 1.2 kg/m3
14041 kPa	950.8 ± 1.2 kg/m3
14069 kPa	950.8 ± 1.2 kg/m3
14093 kPa	950.9 ± 1.2 kg/m3
14116 kPa	950.9 ± 1.2 kg/m3
14140 kPa	950.9 ± 1.2 kg/m3
14168 kPa	950.9 ± 1.2 kg/m3
14191 kPa	950.9 ± 1.2 kg/m3
14215 kPa	951 ± 1.2 kg/m3
14244 kPa	951 ± 1.2 kg/m3
14267 kPa	950.8 ± 1.2 kg/m3
14296 kPa	951 ± 1.2 kg/m3
14320 kPa	951.1 ± 1.2 kg/m3
14344 kPa	951.1 ± 1.2 kg/m3
14368 kPa	951 ± 1.2 kg/m3
14397 kPa	951.1 ± 1.2 kg/m3
14398 kPa	951.2 ± 1.2 kg/m3
14410 kPa	951.1 ± 1.2 kg/m3
14423 kPa	951 ± 1.2 kg/m3
14427 kPa	951.1 ± 1.2 kg/m3
14440 kPa	951.1 ± 1.2 kg/m3
14447 kPa	951.2 ± 1.2 kg/m3
14454 kPa	951 ± 1.2 kg/m3
14468 kPa	951.1 ± 1.2 kg/m3
14477 kPa	951.2 ± 1.2 kg/m3
14482 kPa	951.2 ± 1.2 kg/m3
14495 kPa	951 ± 1.2 kg/m3
14502 kPa	951.1 ± 1.2 kg/m3
14512 kPa	951.2 ± 1.2 kg/m3
14526 kPa	951.1 ± 1.2 kg/m3
14556 kPa	951 ± 1.2 kg/m3
14581 kPa	951.2 ± 1.2 kg/m3
14606 kPa	951.1 ± 1.2 kg/m3
14632 kPa	951.3 ± 1.2 kg/m3
14662 kPa	951.1 ± 1.2 kg/m3
14688 kPa	951.2 ± 1.2 kg/m3
14714 kPa	951.3 ± 1.2 kg/m3
14744 kPa	951.3 ± 1.2 kg/m3
14771 kPa	951.3 ± 1.2 kg/m3
14797 kPa	951.4 ± 1.2 kg/m3
14823 kPa	951.4 ± 1.2 kg/m3
14855 kPa	951.2 ± 1.2 kg/m3
14880 kPa	951.4 ± 1.2 kg/m3
14907 kPa	951.3 ± 1.2 kg/m3
14939 kPa	951.4 ± 1.2 kg/m3
14965 kPa	951.4 ± 1.2 kg/m3
14992 kPa	951.5 ± 1.2 kg/m3
15024 kPa	951.5 ± 1.2 kg/m3
15051 kPa	951.6 ± 1.2 kg/m3
15078 kPa	951.7 ± 1.2 kg/m3
15112 kPa	951.6 ± 1.2 kg/m3
15135 kPa	951.6 ± 1.2 kg/m3
15168 kPa	951.5 ± 1.2 kg/m3
15196 kPa	951.6 ± 1.2 kg/m3
15230 kPa	951.7 ± 1.2 kg/m3
15257 kPa	951.6 ± 1.2 kg/m3
15284 kPa	951.8 ± 1.2 kg/m3
15310 kPa	951.7 ± 1.2 kg/m3
15337 kPa	951.7 ± 1.2 kg/m3
15354 kPa	951.7 ± 1.2 kg/m3
15378 kPa	951.7 ± 1.2 kg/m3
15402 kPa	951.8 ± 1.2 kg/m3
15423 kPa	951.8 ± 1.2 kg/m3
15449 kPa	951.7 ± 1.2 kg/m3
15466 kPa	951.8 ± 1.2 kg/m3
15491 kPa	951.8 ± 1.2 kg/m3
15511 kPa	951.8 ± 1.2 kg/m3
15531 kPa	951.9 ± 1.2 kg/m3
15556 kPa	951.9 ± 1.2 kg/m3
15577 kPa	952 ± 1.2 kg/m3
15598 kPa	951.9 ± 1.2 kg/m3
15623 kPa	952.1 ± 1.2 kg/m3
15643 kPa	951.9 ± 1.2 kg/m3
15664 kPa	951.9 ± 1.2 kg/m3
15689 kPa	951.9 ± 1.2 kg/m3
15710 kPa	951.9 ± 1.2 kg/m3
15732 kPa	951.9 ± 1.2 kg/m3
15753 kPa	952.1 ± 1.2 kg/m3
15778 kPa	952.1 ± 1.2 kg/m3
15800 kPa	952 ± 1.2 kg/m3
15817 kPa	952.1 ± 1.2 kg/m3
15847 kPa	952.1 ± 1.2 kg/m3
15868 kPa	952.2 ± 1.2 kg/m3
15890 kPa	952.1 ± 1.2 kg/m3
15916 kPa	952.2 ± 1.2 kg/m3
15938 kPa	952.1 ± 1.2 kg/m3
15964 kPa	952.1 ± 1.2 kg/m3
15985 kPa	952.1 ± 1.2 kg/m3
16008 kPa	952.2 ± 1.2 kg/m3
16034 kPa	952.2 ± 1.2 kg/m3
16056 kPa	952.2 ± 1.2 kg/m3
16079 kPa	952.2 ± 1.2 kg/m3
16101 kPa	952.2 ± 1.2 kg/m3
16128 kPa	952.2 ± 1.2 kg/m3
16151 kPa	952.3 ± 1.2 kg/m3
16174 kPa	952.3 ± 1.2 kg/m3
16200 kPa	952.4 ± 1.2 kg/m3
16223 kPa	952.3 ± 1.2 kg/m3
16246 kPa	952.4 ± 1.2 kg/m3
16269 kPa	952.4 ± 1.2 kg/m3
16297 kPa	952.4 ± 1.2 kg/m3
16320 kPa	952.5 ± 1.2 kg/m3
16344 kPa	952.5 ± 1.2 kg/m3
16367 kPa	952.5 ± 1.2 kg/m3
16395 kPa	952.6 ± 1.2 kg/m3
16418 kPa	952.5 ± 1.2 kg/m3
16446 kPa	952.4 ± 1.2 kg/m3
16469 kPa	952.5 ± 1.2 kg/m3
16493 kPa	952.7 ± 1.2 kg/m3
16516 kPa	952.5 ± 1.2 kg/m3
16545 kPa	952.7 ± 1.2 kg/m3
16569 kPa	952.6 ± 1.2 kg/m3
16588 kPa	952.6 ± 1.2 kg/m3
16616 kPa	952.6 ± 1.2 kg/m3
16640 kPa	952.6 ± 1.2 kg/m3
16669 kPa	952.7 ± 1.2 kg/m3
16698 kPa	952.5 ± 1.2 kg/m3
16723 kPa	952.7 ± 1.2 kg/m3
16747 kPa	952.8 ± 1.2 kg/m3
16771 kPa	952.8 ± 1.2 kg/m3
16800 kPa	952.8 ± 1.2 kg/m3
16825 kPa	952.8 ± 1.2 kg/m3
16854 kPa	952.8 ± 1.2 kg/m3
16879 kPa	952.8 ± 1.2 kg/m3
16882 kPa	952.8 ± 1.2 kg/m3
16904 kPa	953 ± 1.2 kg/m3
16933 kPa	952.8 ± 1.2 kg/m3
16958 kPa	952.8 ± 1.2 kg/m3
16983 kPa	952.9 ± 1.2 kg/m3
17013 kPa	952.9 ± 1.2 kg/m3
17038 kPa	952.9 ± 1.2 kg/m3
17064 kPa	953.1 ± 1.2 kg/m3
17089 kPa	952.9 ± 1.2 kg/m3
17120 kPa	952.9 ± 1.2 kg/m3
17145 kPa	953 ± 1.2 kg/m3
17176 kPa	952.9 ± 1.2 kg/m3
17202 kPa	952.9 ± 1.2 kg/m3
17228 kPa	952.9 ± 1.2 kg/m3
17254 kPa	953.1 ± 1.2 kg/m3
17285 kPa	953 ± 1.2 kg/m3
17312 kPa	953.1 ± 1.2 kg/m3
17340 kPa	953 ± 1.2 kg/m3
17368 kPa	953 ± 1.2 kg/m3
17394 kPa	953.2 ± 1.2 kg/m3
17426 kPa	953.1 ± 1.2 kg/m3
17453 kPa	953.1 ± 1.2 kg/m3
17463 kPa	953.2 ± 1.2 kg/m3
17480 kPa	953.2 ± 1.2 kg/m3
17483 kPa	953.2 ± 1.2 kg/m3
17507 kPa	953.3 ± 1.2 kg/m3
17512 kPa	953.2 ± 1.2 kg/m3
17528 kPa	953.2 ± 1.2 kg/m3
17538 kPa	953.2 ± 1.2 kg/m3
17548 kPa	953.1 ± 1.2 kg/m3
17566 kPa	953.2 ± 1.2 kg/m3
17572 kPa	953.3 ± 1.2 kg/m3
17598 kPa	953.3 ± 1.2 kg/m3
17625 kPa	953.3 ± 1.2 kg/m3
17652 kPa	953.3 ± 1.2 kg/m3
17686 kPa	953.1 ± 1.2 kg/m3
17709 kPa	953.4 ± 1.2 kg/m3
17742 kPa	953.3 ± 1.2 kg/m3
17770 kPa	953.4 ± 1.2 kg/m3
17798 kPa	953.4 ± 1.2 kg/m3
17831 kPa	953.5 ± 1.2 kg/m3
17859 kPa	953.5 ± 1.2 kg/m3
17882 kPa	953.5 ± 1.2 kg/m3
17887 kPa	953.4 ± 1.2 kg/m3
17921 kPa	953.4 ± 1.2 kg/m3
17949 kPa	953.5 ± 1.2 kg/m3 and 953.6 ± 1.2 kg/m3
17971 kPa	953.5 ± 1.2 kg/m3
17978 kPa	953.5 ± 1.2 kg/m3
17993 kPa	953.6 ± 1.2 kg/m3
18012 kPa	953.5 ± 1.2 kg/m3
18019 kPa	953.6 ± 1.2 kg/m3
18040 kPa	953.4 ± 1.2 kg/m3
18075 kPa	953.5 ± 1.2 kg/m3
18104 kPa	953.5 ± 1.2 kg/m3
18133 kPa	953.6 ± 1.2 kg/m3
18161 kPa	953.6 ± 1.2 kg/m3
18196 kPa	953.5 ± 1.2 kg/m3
18200 kPa	953.7 ± 1.2 kg/m3
18226 kPa	953.7 ± 1.2 kg/m3
18227 kPa	953.7 ± 1.2 kg/m3
18250 kPa	953.7 ± 1.2 kg/m3
18255 kPa	953.7 ± 1.2 kg/m3
18275 kPa	953.8 ± 1.2 kg/m3
18290 kPa	953.7 ± 1.2 kg/m3
18320 kPa	953.8 ± 1.2 kg/m3
18350 kPa	953.7 ± 1.2 kg/m3
18386 kPa	953.8 ± 1.2 kg/m3
